≈ marks a conversion by molar mass, not a printed value. Read-outs that look alike come from different tables or passages of the source.
Experiments:
[1] = tested on: S. aureus Terajima; experiment: Antibacterial activity (MIC), standard agar dilution streak method; type: cell-based, Staphylococcus aureus; details: Staphylococcus aureus; S. aureus Terajima; read-out: Minimum inhibitory concentration
Protocol: (§1) The antibacterial activities of the compounds of the present invention were assayed by the standard agar dilution streak method against Gram-positive and Gram-negative bacteria [Chemotherapy, 22, 1126 (1974)].

[2] = tested on: P. mirabilis IID 994; experiment: as above; type: cell-based; details: Proteus mirabilis, IID994; P. mirabilis IID 994; read-out: Minimum inhibitory concentration
Protocol: as §1

[3] = tested on: Alcaligenes faecalis 0104002; experiment: as above; type: cell-based; details: for MIC: read-out: Minimum inhibitory concentration
Protocol: as §1

[4] = tested on: Citrobacter freundii IID 976; experiment: as above; type: cell-based; details: read-out: Minimum inhibitory concentration
Protocol: as §1

[5] = tested on: Klebsiella pneumoniae IFO 3512; experiment: as above; type: cell-based; details: read-out: Minimum inhibitory concentration
Protocol: as §1

[6] = tested on: Staphylococcus aureus 209 p; experiment: as above; type: cell-based; details: Staphylococcus aureus 209 p; for MIC: read-out: Minimum inhibitory concentration
Protocol: as §1

[7] = tested on: Enterobacter cloacae IID 977; experiment: as above; type: cell-based; details: read-out: Minimum inhibitory concentration
Protocol: as §1

[8] = tested on: P. morganii IID 602; experiment: as above; type: cell-based; details: Morganella morganii, IID602, P. morganii IID 602; read-out: Minimum inhibitory concentration
Protocol: as §1

[9] = tested on: Yersinia enterocolitica IID 981; experiment: as above; type: cell-based; details: read-out: Minimum inhibitory concentration
Protocol: as §1

[10] = tested on: Acinetobacter anitratus IID 876; experiment: as above; type: cell-based; details: Acinetobacter calcoaceticus, IID876, read-out: Minimum inhibitory concentration
Protocol: as §1

[11] = tested on: S. epidermidis IID 866; experiment: as above; type: cell-based; details: Staphylococcus epidermidis, IID866, read-out: Minimum inhibitory concentration
Protocol: as §1

[12] = tested on: Bacillus subtilis PCI 219; experiment: as above; type: cell-based; details: PCI219; Bacillus subtilis PCI 219; read-out: Minimum inhibitory concentration
Protocol: as §1

[13] = tested on: Salmonella enteritidis IID 604; experiment: as above; type: cell-based; details: Salmonella enterica; Salmonella enteritidis IID 604; read-out: Minimum inhibitory concentration
Protocol: as §1

[14] = tested on: Serratia marcescens IID 618; experiment: as above; type: cell-based; details: for MIC: read-out: Minimum inhibitory concentration
Protocol: as §1

[15] = tested on: Pseudomonas aeruginosa V-1; experiment: as above; type: cell-based; details: read-out: Minimum inhibitory concentration
Protocol: as §1

[16] = tested on: Escherichia coli NIHJ JC-2; experiment: as above; type: cell-based; details: for MIC: read-out: Minimum inhibitory concentration
Protocol: as §1

[17] = tested on: E. coli ATCC 10536; experiment: as above; type: cell-based, Escherichia coli; details: for MIC: Escherichia coli, ATCC10536, read-out: Minimum inhibitory concentration
Protocol: as §1

[18] = tested on: P. aeruginosa IFO 12689; experiment: as above; type: cell-based, Pseudomonas aeruginosa; details: Pseudomonas aeruginosa, IFO12689, P. aeruginosa IFO 12689; read-out: Minimum inhibitory concentration
Protocol: as §1

[19] = tested on: Shigella sonnei IID 969; experiment: microbe, parasite or virus in culture; type: cell-based; details: Shigella sonnei
Protocol: as §1

[20] = tested on: Proteus vulgaris 3167; experiment: Antibacterial activity (MIC), standard agar dilution streak method; type: cell-based; details: read-out: Minimum inhibitory concentration
Protocol: as §1

[21] = IID976, Citrobacter freundii IID 976
[22] = IFO3512, Klebsiella pneumoniae IFO 3512
[23] = IID977, Enterobacter cloacae IID 977
[24] = IID981, Yersinia enterocolitica IID 981
[25] = IID618, Serratia marcescens IID 618
[26] = Pseudomonas aeruginosa, V1, Pseudomonas aeruginosa V-1
[27] = NIHJJC2, Escherichia coli NIHJ JC-2
[28] = IID969, Shigella sonnei IID 969, read-out: Minimum inhibitory concentration
[29] = Alcaligenes faecalis, 0104002, Alcaligenes faecalis 0104002
[30] = Citrobacter freundii, IID976, Citrobacter freundii IID 976
[31] = Proteus vulgaris, 3167, Proteus vulgaris 3167
[32] = Klebsiella pneumoniae, IFO3512, Klebsiella pneumoniae IFO 3512
[33] = Yersinia enterocolitica, IID981, Yersinia enterocolitica IID 981
[34] = Serratia marcescens, IID618, Serratia marcescens IID 618
[35] = Escherichia coli, NIHJJC2, Escherichia coli NIHJ JC-2

| Structure (SMILES) | MIC [1] [µg/mL] | MIC [2] [µg/mL] | MIC ([3]; Alcaligenes faecalis 0104002) [µg/mL] | MIC [4, 21] [µg/mL] | MIC [5, 22] [µg/mL] | MIC [6] [µg/mL] | MIC [7, 23] [µg/mL] | MIC [8] [µg/mL] | MIC [9, 24] [µg/mL] | MIC [10] [µg/mL] | MIC [11] [µg/mL] | MIC [12] [µg/mL] | MIC [13] [µg/mL] | MIC [14, 25] [µg/mL] | MIC [15, 26] [µg/mL] | MIC [16, 27] [µg/mL] | MIC [17] [µg/mL] | MIC [18] [µg/mL] | MIC [19, 28] [µg/mL] | MIC ([20]; Proteus vulgaris 3167) [µg/mL] | other results |
| --- | --- | --- | --- | --- | --- | --- | --- | --- | --- | --- | --- | --- | --- | --- | --- | --- | --- | --- | --- | --- | --- |
| Cl.Cn1cc(C(=O)O)c(=O)c2cc(F)c(N3CCNCC3)c(F)c21 [Example 1, 6,8-Difluoro-1,4-dihydro-1-methyl-4-oxo-7-(1-piperazinyl)quinoline-3-carboxylic acid hydrochloride] | 3.13 | 0.1 | 6.25 | ≤ 0.05 | ≤ 0.05 | 3.13 | 0.1 | 0.2 | 0.1 | 1.56 | 3.13 | 0.39 | 0.1 | 0.1 | 3.13 | ≤ 0.05 | 0.1 | 1.56 | ≤ 0.05 |  |  |
| CCCn1cc(C(=O)O)c(=O)c2cc(F)c(N3CCNCC3)c(F)c21.Cl [Example 2, 6,8-Difluoro-1,4-dihydro-4-oxo-7-(1-piperazinyl)-1-n-propylquinoline-3-carboxylic acid hydrochloride] | 3.13 | 0.1 | 1.56 | 0.2 | 0.1 | 1.56 | 0.78 | 0.39 | 0.39 | 1.56 | 3.13 | 0.2 | 0.2 | 0.39 | 12.5 | ≤ 0.05 | 0.2 | 6.25 |  | ≤ 0.05 | MIC ([19]; IID969, read-out: Minimum inhibitory concentration): 0.1 µg/mL |
| C=CCn1cc(C(=O)O)c(=O)c2cc(F)c(N3CCNCC3)c(F)c21.Cl [Example 3, 1-Allyl-6,8-difluoro-1,4-dihydro-4-oxo-7-(1-piperazinyl)quinoline-3-carboxylic acid hydrochloride] | 3.13 | 0.2 | 3.13 | 0.2 | 0.1 | 3.13 | 0.78 | 0.39 | 0.39 | 3.13 | 3.13 | 0.39 | 0.2 | 0.39 | 12.5 |  | 0.39 | 6.25 | 0.1 | 0.1 |  |
| Cl.O=C(O)c1cn(CCF)c2c(F)c(N3CCNCC3)c(F)cc2c1=O [Example 4, 6,8-Difluoro-1-(2-fluoroethyl)-1,4-dihydro-4-oxo-7-(1-piperazinyl)quinoline-3-carboxylic acid hydrochloride] | 3.13 | ≤ 0.05 | 3.13 | ≤ 0.05 | ≤ 0.05 | 3.13 | ≤ 0.05 | 0.2 | 0.05 | 3.13 | 1.56 | 0.39 | 0.05 | 0.39 | 6.25 | ≤ 0.05 | 0.1 | 1.56 | ≤ 0.05 | ≤ 0.05 |  |
| CN1CCN(c2c(F)cc3c(=O)c(C(=O)O)cn(CCF)c3c2F)CC1.Cl [Example 5, 6,8-Difluoro-1-(2-fluoroethyl)-1,4-dihydro-7-(4-methyl-1-piperazinyl)-4-oxoquinoline-3-carboxylic acid hydrochloride] | 0.78 | ≤ 0.05 |  |  |  | 0.78 |  | 0.1 |  | 0.39 | 0.78 | 0.1 |  |  |  |  | 0.1 | 3.13 | ≤ 0.05 |  | MIC [3, 29]: 0.78 µg/mL; MIC [4, 30]: ≤ 0.05 µg/mL; MIC [20, 31]: ≤ 0.05 µg/mL; MIC [5, 32]: ≤ 0.05 µg/mL; MIC ([7]; Enterobacter cloacae, IID977, Enterobacter cloacae IID 977): 0.1 µg/mL; MIC [9, 33]: 0.1 µg/mL; MIC [14, 34]: 0.1 µg/mL; MIC ([15]; V1, Pseudomonas aeruginosa V-1): 3.13 µg/mL; MIC [16, 35]: ≤ 0.05 µg/mL |
| C=CCN1CCN(c2c(F)cc3c(=O)c(C(=O)O)cn(CC)c3c2F)CC1 [Example 6, 7-(4-Allyl-1-piperazinyl)-1-ethyl-6,8-difluoro-1,4-dihydro-4-oxoquinoline-3-carboxylic acid] | 0.78 (≈ 2.07 µM) | 0.39 (≈ 1.03 µM) |  |  |  | 0.78 (≈ 2.07 µM) | 1.56 (≈ 4.13 µM) | 0.78 (≈ 2.07 µM) |  | 0.78 (≈ 2.07 µM) | 0.78 (≈ 2.07 µM) | 0.1 (≈ 0.265 µM) | 1.56 (≈ 4.13 µM) |  |  |  | 0.39 (≈ 1.03 µM) | 25 (≈ 66.2 µM) | 0.2 (≈ 0.53 µM) |  | MIC [3, 29]: 3.13 µg/mL (≈ 8.29 µM); MIC [4, 30]: 0.78 µg/mL (≈ 2.07 µM); MIC [20, 31]: 0.2 µg/mL (≈ 0.53 µM); MIC [5, 32]: ≤ 0.05 µg/mL; MIC [9, 33]: 0.78 µg/mL (≈ 2.07 µM); MIC [14, 34]: 1.56 µg/mL (≈ 4.13 µM); MIC ([15]; V1, Pseudomonas aeruginosa V-1): 12.5 µg/mL (≈ 33.1 µM); MIC [16, 35]: 0.1 µg/mL (≈ 0.265 µM) |
| CCn1cc(C(=O)O)c(=O)c2cc(F)c(N3CCC(O)CC3)c(F)c21 [Example 9, 1-Ethyl-6,8-difluoro-1,4-dihydro-7-(4-hydroxy-1-piperidinyl)-4-oxoquinoline-3-carboxylic acid] | 0.2 (≈ 0.568 µM) |  |  |  |  |  |  | 0.78 (≈ 2.21 µM) |  | 1.56 (≈ 4.43 µM) | 0.39 (≈ 1.11 µM) | ≤ 0.05 | 1.56 (≈ 4.43 µM) |  | 6.25 (≈ 17.7 µM) |  |  | 12.5 (≈ 35.5 µM) | 0.2 (≈ 0.568 µM) |  | Minimum inhibitory concentration ([3]; Alcaligenes faecalis 0104002): 1.56 µg/mL (≈ 4.43 µM); MIC [4, 30]: 0.78 µg/mL (≈ 2.21 µM); MIC [20, 31]: ≤ 0.05 µg/mL; MIC [5, 32]: ≤ 0.05 µg/mL; Minimum inhibitory concentration [6]: 0.20 µg/mL (≈ 0.568 µM); MIC [9, 33]: 0.78 µg/mL (≈ 2.21 µM); Minimum inhibitory concentration ([14]; Serratia marcescens IID 618): 1.56 µg/mL (≈ 4.43 µM); Minimum inhibitory concentration ([16]; Escherichia coli NIHJ JC-2): 0.20 µg/mL (≈ 0.568 µM); Minimum inhibitory concentration [17]: 0.20 µg/mL (≈ 0.568 µM) |
| CCn1cc(C(=O)O)c(=O)c2cc(F)c(N3CCCC(O)C3)c(F)c21 (stereo not shown) [Example 10, 1-Ethyl-6,8-difluoro-1,4-dihydro-7-(3-hydroxy-1-piperidinyl)-4-oxoquinoline-3-carboxylic acid] |  |  |  |  |  | 0.2 (≈ 0.568 µM) | 6.25 (≈ 17.7 µM) | 1.56 (≈ 4.43 µM) |  | 1.56 (≈ 4.43 µM) | 0.78 (≈ 2.21 µM) | ≤ 0.05 | 6.25 (≈ 17.7 µM) |  |  |  | 0.78 (≈ 2.21 µM) | 25 (≈ 71 µM) | 0.78 (≈ 2.21 µM) |  | MIC [3, 29]: 3.13 µg/mL (≈ 8.88 µM); MIC [4, 30]: 1.56 µg/mL (≈ 4.43 µM); MIC [20, 31]: 0.1 µg/mL (≈ 0.284 µM); MIC [5, 32]: 0.1 µg/mL (≈ 0.284 µM); MIC [9, 33]: 1.56 µg/mL (≈ 4.43 µM); MIC [14, 34]: 3.13 µg/mL (≈ 8.88 µM); MIC ([15]; V1, Pseudomonas aeruginosa V-1): 25 µg/mL (≈ 71 µM) |
| Cl.O=C(O)c1cn(CCO)c2c(F)c(N3CCNCC3)c(F)cc2c1=O [Example 14, 6,8-Difluoro-1,4-dihydro-1-(2-hydroxyethyl)-4-oxo-7-(1-piperazinyl)-quinoline-3-carboxylic acid hydrochloride] | 25 |  | 100 | 0.2 | 0.39 | 12.5 | 0.39 |  | 0.39 | 25 | 12.5 | 3.13 | 0.39 | 6.25 |  | 0.39 | 0.39 | 12.5 | 0.2 | 0.39 |  |
